Assay results reported in patent US10309966B2, “Personalized therapy of inflammation-associated cancer using methods of assessing the susceptibility of a subject to the treatment with EGFR inhibitors/antagonists” (Medizinische Universität Wien, priority 2014, dated 2019).

What was measured:
[1] = test system: IL-6 release by cultured Kupffer cells; test: EGF-induced IL-6 release by cultured Kupffer cells (ELISA); assay type: cell-based, mouse
Description: (§1) Protocols for ELISA have been previously described (Natarajan, A. et al., 2007; Lichtenberger, B. M. et al., 2010; Sibilia, M. et al., 2000; Drobits, B. et al., 2012). ELISA for IL-6, IL17A, IL22, IL23 (eBioscience), amphiregulin (R&D Systems), CCL2, IL-1β and IL-1α (BD Biosciences-Pharmigen) were performed following the manufacturer's instructions. MTT assay (EZ4U, Biomedica) was performed to quantify the number of viable Kupffer cells in the wells. The cytokine value was normalized to the number of viable Kupffer cells.
Hepatocytes and Kupffer cells were isolated after liver perfusion according to previously published protocols (Smedsrod, B. et al., 1985) and either directly used for further analysis or cultured as follows. Hepatocytes were plated onto collagen pre-coated cell culture dishes and cultured in HepatoZyme-SFM (Gibco) supplemented with 2 mM glutamine and 1% penicillin-streptomycin (P/S). Hepatocytes were either treated with the indicated amounts of DEN for 24 hours or with 10 ng/ml TNFα (eBioscience) in the presence of cycloheximide (100 μg/ml, Sigma) for 12 hours to study the hepatoprotective role of EGFR. Kupffer cells were isolated and plated in RPMI 1640 with 10% FCS, 2 mM glutamine, 1% P/S for at least 24 hours followed by overnight starvation (in 0.5% FCS containing medium for cytokine induction; serum-free medium for signaling experiments). Kupffer cells were stimulated with IL-1β (10 ng/ml, eBioscience), EGF (10 ng/ml, Lonza), polylC (20 μg/ml, GE Healthcare), imiquimod (12 μg/ml, Invivogen) and LPS (10 ng/ml, Invivogen) for the time period indicated. […] Since the number of Kupffer cells which can be recovered from one mouse is very low, it was technically impossible to perform Western Blot analysis for all indicated signaling molecules on one single batch of Kupffer cells. Usually Kupffer cells from 2 livers of the same genotype were pooled together to obtain around 20-30 μg of protein lysate.

[2] = test system: IL-6 secretion by isolated Kupffer cells; test: IL-1β-induced IL-6 production/secretion by isolated Kupffer cells (ELISA, qRT-PCR); assay type: cell-based, mouse; conditions: for IL-1β-induced release of IL-6: EGFR-expressing Kupffer cells, 24 hours after IL-1β, inhibitor pre-incubation, FIG. 10C
Description: as §1, with “ELISA” for “Protocols for ELISA have been previously described (Natarajan, A. et al., 2007; Lichtenberger, B. M. et al., 2010; Sibilia, M. et al., 2000; Drobits, B. et al., 2012). ELISA”
(§2) Hepatocytes were plated onto collagen pre-coated cell culture dishes and cultured in HepatoZyme-SFM (Gibco) supplemented with 2 mM glutamine and 1% penicillin-streptomycin (P/S). Hepatocytes were either treated with the indicated amounts of DEN for 24 hours or with 10 ng/ml TNFα (eBioscience) in the presence of cycloheximide (100 μg/ml, Sigma) for 12 hours to study the hepatoprotective role of EGFR. […] Since the number of Kupffer cells which can be recovered from one mouse is very low, it was technically impossible to perform Western Blot analysis for all indicated signaling molecules on one single batch of Kupffer cells. Usually Kupffer cells from 2 livers of the same genotype were pooled together to obtain around 20-30 μg of protein lysate.

[3] = test system: AR release by cultured Kupffer cells; test: AR (amphiregulin) release into supernatant of IL-1β stimulated Kupffer cells (ELISA); assay type: cell-based, mouse; conditions: 24 hours after IL-1β stimulation in presence of inhibitor; FIG. 10B
Description: as §1
Hepatocytes and Kupffer cells were isolated after liver perfusion according to previously published protocols (Smedsrod, B. et al., 1985) and either directly used for further analysis or cultured as follows. Hepatocytes were plated onto collagen pre-coated cell culture dishes and cultured in HepatoZyme-SFM (Gibco) supplemented with 2 mM glutamine and 1% penicillin-streptomycin (P/S). Hepatocytes were either treated with the indicated amounts of DEN for 24 hours or with 10 ng/ml TNFα (eBioscience) in the presence of cycloheximide (100 μg/ml, Sigma) for 12 hours to study the hepatoprotective role of EGFR. Kupffer cells were isolated and plated in RPMI 1640 with 10% FCS, 2 mM glutamine, 1% P/S for at least 24 hours followed by overnight starvation (in 0.5% FCS containing medium for cytokine induction; serum-free medium for signaling experiments). […]

[4] = test system: advanced stage HCC patients; conditions: cited from earlier work
human HCC cells = conditions: xenograft models with human HCC cells; W. Sieghart, unpublished results; cited from earlier work
[5] = test system: patients with advanced non-small-cell lung cancer; conditions: meta-analysis; cited from earlier work
[6] = test system: ulcerative colitis patients; conditions: EGF enemas; cited from earlier work
EGFR = EGFR phosphorylation in isolated Kupffer cells (Western blot); assay type: cell-based, mouse; conditions: EGFR expressing Kupffer cells; IL-1β as stimulus; FIGS. 10E, 10F
Description: as §2

[7] = test system: DSS colitis in Adam17^ex/ex mice; conditions: exogenous supplementation; cited from earlier work

C[S+]([O-])c1ccc(-c2nc(-c3ccncc3)c(-c3ccc(F)cc3)[nH]2)cc1 (centres unmarked) [SB203580, reference compound]
EGF-induced IL-6 production ([1]; EGFR-positive liver macrophages, 24 hours after EGF, inhibitor pre-incubation, FIG. 10D): inhibited | IL-1β-induced release of IL-6 [2]: inhibited

CC(C)C[C@H](CC(=O)NO)C(=O)N[C@@H](Cc1ccc2ccccc2c1)C(=O)N[C@@H](C)C(=O)NCCN [TAPI-1, reference compound]
AR release into the culture medium [3]: did not occur | IL-1β-induced release of IL-6 [2]: blocked

C#Cc1cccc(Nc2ncnc3cc(OCCOC)c(OCCOC)cc23)c1 [erlotinib]
effects in phase 2 trials (disease stabilization at 6 months) ([4]; HCC, phase 2): moderate effects | improvement in survival through addition of erlotinib ([4]; SEARCH trial, phase III, advanced stage HCC-patients): unable to show any improvement in survival | reduction of HCC burden (human HCC cells): ineffective | synergistic effect of combination therapy with sorafenib (human HCC cells): did not show any synergistic effect | drug toxicity (diarrhea) [5]: increased drug toxicity in the form of diarrhea

COc1cc2ncnc(Nc3ccc(F)c(Cl)c3)c2cc1OCCCN1CCOCC1 [gefitinib]
clinical results in advanced stage HCC patients ([4]; advanced stage HCC): disappointing clinical results | drug toxicity (diarrhea) [5]: increased drug toxicity in the form of diarrhea

EGF: EGFR ligand epidermal growth factor (NSDSECPLSHDGYCLHDGVCMYIEALDKYACNCVVGYIGERCQYRDLKWWELR; UniProt P01133 971-1023, looked up)
restoration of IL-6 production in MyD88−/− Kupffer cells ([1]; EGF as stimulus, FIG. 10D): fully restore | induction of IL-6 release ([1]; EGFR expressing Kupffer cells, EGF as stimulus, FIGS. 10C, 10D): sufficient and equally as potent as IL-1β | disease remission [6]: induced disease remission

IL-1β: cytokine used to stimulate Kupffer cells
induction of EGFR phosphorylation (EGFR): able to induce | induction of IL-6 transcripts and IL-6 protein in the culture medium ([2]; Kupffer cells expressing EGFR, IL-1β as stimulus, FIGS. 8E, 8F): induced

TGFα: EGFR ligand transforming growth factor alpha, exogenous supplementation
rescue of colitis symptoms [7]: partial rescue
